Data published in ChEMBL document CHEMBL1152723, “Remarkable enhancement in the DNA-binding ability of C2-fluoro substituted pyrrolo[2,1-c][1,4]benzodiazepines and their anticancer potential” (2009).

Assays:
Type in all cases: functional
[1] = tested on: KM12; assay: Growth inhibition of human KM12 cells after 48 hrs by sulforhodamine B protein assay; settings: KM12, 48 h
[2] = tested on: HCT-116; assay: Growth inhibition of human HCT116 cells after 48 hrs by sulforhodamine B protein assay; settings: HCT-116, 48 h
[3] = tested on: IGROV-1; assay: Growth inhibition of human IGROV1 cells after 48 hrs by sulforhodamine B protein assay; settings: IGROV-1, 48 h
[4] = tested on: BT-549; assay: Growth inhibition of human BT549 cells after 48 hrs by sulforhodamine B protein assay; settings: BT-549, 48 h
[5] = tested on: UO-31; assay: Growth inhibition of human UO31 cells after 48 hrs by sulforhodamine B protein assay; settings: UO-31, 48 h
[6] = tested on: PC-3; assay: Growth inhibition of human PC3 cells after 48 hrs by sulforhodamine B protein assay; settings: PC-3, 48 h
[7] = tested on: HCT-15; assay: Growth inhibition of human HCT15 cells after 48 hrs by sulforhodamine B protein assay; settings: HCT-15, 48 h
[8] = tested on: K562; assay: Growth inhibition of human K562 cells after 48 hrs by sulforhodamine B protein assay; settings: K562, 48 h
[9] = tested on: SK-MEL-5; assay: Growth inhibition of human SK-MEL-5 cells after 48 hrs by sulforhodamine B protein assay; settings: SK-MEL-5, 48 h
[10] = tested on: SNB-19; assay: Growth inhibition of human SNB19 cells after 48 hrs by sulforhodamine B protein assay; settings: SNB-19, 48 h
[11] = tested on: NCI-H522; assay: Growth inhibition of human NCI-H522 cells after 48 hrs by sulforhodamine B protein assay; settings: NCI-H522, 48 h
[12] = tested on: SNB-75; assay: Growth inhibition of human SNB75 cells after 48 hrs by sulforhodamine B protein assay; settings: SNB-75, 48 h
[13] = tested on: EKVX; assay: Growth inhibition of human EKVX cells after 48 hrs by sulforhodamine B protein assay
[14] = Growth inhibition of human […] cells after 48 hrs by sulforhodamine B protein assay
[15] = tested on: LOX IMVI; assay: Growth inhibition of human LOXIMVI cells after 48 hrs by sulforhodamine B protein assay
[16] = tested on: SF-268; assay: Growth inhibition of human SF268 cells after 48 hrs by sulforhodamine B protein assay; settings: SF-268, 48 h
[17] = tested on: CAKI-1; assay: Growth inhibition of human Caki1 cells after 48 hrs by sulforhodamine B protein assay; settings: CAKI-1, 48 h

COc1cc2c(cc1OCCCN1CCN(CCCOc3cc4c(cc3OC)C(=O)N3CC(F)C[C@H]3C=N4)CC1)N=C[C@@H]1CC(F)CN1C2=O (some centres not stated)
GI50 [1]: 100 nM | GI50 [2]: < 20 nM | GI50 [3]: < 50 nM | GI50 [4]: < 90 nM | GI50 [5]: 1030 nM | GI50 [6]: 10 nM | GI50 [7]: 2560 nM | GI50 [8]: < 10 nM | GI50 [9]: < 40 nM | GI50 [10]: < 20 nM | GI50 [11]: < 10 nM | GI50 [12]: < 30 nM | GI50 [13]: 170 nM | GI50 [14]: < 20 nM | GI50 [15]: < 10 nM | GI50 [16]: < 10 nM | GI50 [17]: 20 nM
